Source: patent publication US20190307691A1, “HYDROGELS WITH LIPOSOMES FOR CONTROLLED RELEASE OF DRUGS” (NORTHERN ILLINOIS RESEARCH FOUNDATION, priority 2018, published 2019)
Each block holds one molecule with its values, some of them ahead of it.

Legend:
[1] = Differential scanning calorimetry for thermal stability; settings: DSC, measure of thermal stability
Description: Differential scanning calorimetry (DSC) was used to investigate the thermal stability as well as interaction between liposomes and entrapped protein.
For thermal stability analysis of liposomes and encapsulated protein, two mg of standard lipids, protein and liposome samples were loaded in aluminum pans along with the standard reference aluminum in the differential scanning calorimeter (Shimadzu DSC 60). The thermal profiles were recorded between 10° C. and 180° C. at a scan rate of 15° C./min for three cycles.

[2] = cited from earlier work
[3] = oral, in the absence of decarboxylase inhibitors; cited from earlier work
[4] = L-DOPA oxidation in solution (UV-Vis, LC/MS); type: physicochemical
Description: The solution was stored with minimal exposure to light. […] In order to accelerate the complete oxidation of L-DOPA starting material, the substance was reacted in at pH 10. […] These hydrophobic oxidation products were separated and collected for in vitro experiments with epithelialcells.
LC/MS analysis was performed using an LCQ Advantage Mass Spectrometer System with a Surveyor LC Pump and PDA Detector (Thermo Finnigan). Separations were performed on a 100 mm×3.0 mm Kinetex C18 column. Mobile phase was 0.1% formic acid in MeOH (B) balanced with water. […] Absorbance was monitored at 280 and 320 nm. For ESI-MS conditions, capillary temperature was 200° C. and spray voltage was set to 4.5 kV. […] Full spectra were collected between m/z range of 200-1000.

RPE cells = settings: 2.5 mg/ml; cited from earlier work
ARPE-19 cells = experiment: MTT cell viability with Avastin and Avastin liposomes; type: cell-based; settings: exposed to 2 mg of the antibody
Description: ARPE-19 cells purchased from American Type Culture Collection were used. […] Cells were plated in 12-well plates with an initial seeding density of 5×10^4 cells per ml in each plate. Cells were grown to confluency for 4 days prior to experimentation; 12-well plates were used for MTT assays. 1.5 ml of 25 mg/ml Avastin solution was sterile filtered to create a stock solution that was transferred to a sterile centrifuge tube. Each well of the 12 well plate had its media aspirated out and was then rinsed with buffer which was also aspirated out. […] Enough media was added to each well to create a total volume of 1 ml in each well. […] 1.3 ml of 10% MTT 5 mg/ml in PBS and 11.7 ml of 90% media (with phenol red) was used. MTT in PBS was added to the media in a centrifuge tube and then sterile filtered. The filtered mixture was then plated on the 12 well plate (1 ml per well). The plate was then incubated for 90 minutes. After incubation, the MTT media was aspirated. 1 ml of DMSO per well was added. The MTT assay was read at 560 nm.

[5] = cited from earlier work; remark: listed apart in the source
[6] = Intravitreal drug release and toxicity in rabbit's eye (Fluorotron, ELISA, histopathology); type: in vivo, Oryctolagus cuniculus (Dutch belted rabbits); settings: single intravitreal injection
Description: The efficacy of the liposomes and the combination product has been tested using rabbit models. The experimental design of this experiment involving Oryctolagus cuniculus (Dutch belted rabbits) was approved by the Northern Illinois University Institutional Animal Care and Use Committee (IACUC) and is as follows. Rabbits were divided into 4 groups and each rabbit was injected with the formulation in the right eye using left eye as control.
Drug release profiles in the rabbit's eye over a period of time was measured non-invasively using the Fluorotron. […] Light re-emitted (reflection and fluorescence) by the fluorescent tag on the protein is sampled from the 1.9×0.1 mm slit, aligned to the excitation and defined by an aperture Rd (which is confocal to Re). […] The configuration of these pupils is in the plane of the subject's pupil minimizes contributions from the fluorescence outside of the measurement point by separating the excitation and detection paths. Another band-pass filter rejects reflected excitation light, and the fluorescence collected by aperture Rd is detected using a red-extended end-on photomultiplier tube selected for low (<100 count/sec.) dark noise. As the focus lens is driven forward the emission signal is continuously monitored from retina to cornea, giving an intensity output. […]

Melting temperature, Tm [1]: ~154° ° C.
Molecule: CC(C)CCC[C@@H](C)[C@H]1CC[C@H]2[C@@H]3CC=C4C[C@@H](O)CC[C@]4(C)[C@H]3CC[C@]12C [Cholesterol]

Molecule: CCCCCCCCCCCCCC(=O)OC[C@H](COP(=O)([O-])OCC[N+](C)(C)C)OC(=O)CCCCCCCCCCCCC [DMPC]
Melting temperature, Tm [1]: ~42° ° C.

Molecule: CCCCCCCC/C=C\CCCCCCCC(=O)OC[C@H](COP(=O)(O)OCCN)OC(=O)CCCCCCC/C=C\CCCCCCCC [DOPE]
Melting temperature, Tm [1]: ~63° ° C.

Molecule: CCCCCCCCCCCCCCCCCC(=O)OCC(COP(=O)(O)OCC(O)CO)OC(=O)CCCCCCCCCCCCCCCCC (stereo not drawn) [DSPG]
Melting temperature, Tm [1]: ~40° ° C.

oxidation of L-DOPA ([4]; PBS pH 7.4, after 3 days, minimal exposure to light): does not undergo complete oxidation
oxidation of L-DOPA ([4]; pH 7.4 solution, after 35 days): substantial oxidation
oxidation of L-DOPA ([4]; pH 10, after 24 hours): completely consumed
Molecule: N[C@@H](Cc1ccc(O)c(O)c1)C(=O)O [L-DOPA]
drug oxidized to melanin ([2]; after 24 hr in neutral pH): 47%
drug oxidized ([2]; under basic conditions): at least 50.9%
unmetabolized drug reaching the brain [3]: less than 1%

Molecule: Bevacizumab: anti-VEGF antibody, anti-angiogenic agent
effect on RPE cells (RPE cells): cytotoxic effects
cell viability (MTT) (ARPE-19 cells): decreased slightly
intravitreal half-life ([5]; intravitreal): about 4.32 days
concentration in the vitreous ([5]; maintained over a period of 30 days): about 10 μg/ml
Time of release of a therapeutic concentrate [6]: 5 weeks
